# Measured values: patent publication US20130281397A1, “TREATMENT OF DISEASES BY EPIGENETIC REGULATION” (RVX Therapeutics Inc., priority 2012, published 2013)
# What was measured:
# [1] = biological target: T1, Brd4 bromodomain 1 (Homo sapiens, UniProt O60885); test: Inhibition of binding of tetra-acetylated histone H4 and Brd4 bromodomain 1 by TR-FRET; conditions: His-tagged bromodomain 200 nM, biotinylated tetra-acetylated histone H4 peptide 25-50 nM, 2 hours at room temperature
# T1 construct: made in house; host or cells: E. coli BL21(DE3)
FRET activity (<50 uM) [1],melting point [°C],SMILES
Inactive,228 to 230,"O=c1[nH]c(-c2ccc(N(CCO)CCO)cc2)nc2ccccc12 [Example 40, 2-(4-(bis(2-hydroxyethyl)amino)phenyl)quinazolin-4(3H)-one]"
Active,279 to 281,"COc1cc(OC)c2c(=O)[nH]c(-c3ccc(O)c(Cl)c3)nc2c1 [Example 27, 2-(3-chloro-4-hydroxyphenyl)-5,7-dimethoxyquinazolin-4(3H)-one]"
Active,252 to 254,"COc1cc(OC)c2c(=O)[nH]c(-c3cc(C)c(OCC(C)(C)O)c(C)c3)cc2c1 [Example 11, 3-(4-(2-hydroxy-2-methylpropoxy)-3,5-dimethylphenyl)-6,8-dimethoxyisoquinolin-1(2H)-one]"
Inactive,354 to 356,"COc1cc2nc(-c3cc(C)c(OCC(N)=O)c(C)c3)[nH]c(=O)c2cc1OC [Example 50, 2-(4-(6,7-dimethoxy-4-oxo-3,4-dihydroquinazolin-2-yl)-2,6-dimethylphenoxy)acetamide]"

# The remaining lines, values behind:
SMILES,FRET activity (<50 uM) [1],melting point [°C]
"COc1cc(OC)c2c(=O)[nH]c(-c3cc(C)c(O)c(C)c3)nc2n1 [Example 63, 2-(4-hydroxy-3,5-dimethylphenyl)-5,7-dimethoxypyrido[2,3-d]pyrimidin-4(3H)-one]",Active,297 to 299
"COc1cc(OC)c2c(=O)[nH]c(-c3ccc(OC)c(CN4CCOCC4)c3)nc2c1 [Example 64, 5,7-dimethoxy-2-(4-methoxy-3-(morpholinomethyl)phenyl)quinazolin-4(3H)-one]",Active,282.7 to 284.5
"Cc1cc(C)c2c(=O)[nH]c(-c3cc(C)c(OCCO)c(C)c3)nc2c1 [Example 71, 2-(4-(2-hydroxyethoxy)-3,5-dimethylphenyl)-5,7-dimethylquinazolin-4(3H)-one]",Inactive,259.6 to 261.2
"COc1cc(OC)c2c(=O)[nH]c(-c3cc(C)c(OCCN4CCOCC4)c(C)c3)cc2n1 [Example 45, 7-(3,5-dimethyl-4-(2-morpholinoethoxy)phenyl)-2,4-dimethoxy-1,6-naphthyridin-5(6H)-one]",Active,212.5 to 212.9
"Cc1cc(-c2nc3cc(Cl)cc(Cl)c3c(=O)[nH]2)cc(C)c1OCCO [Example 74, 5,7-dichloro-2-(4-(2-hydroxyethoxy)-3,5-dimethylphenyl)quinazolin-4(3H)-one]",Active,260.8 to 262.6
"CN(C)c1ccc(-c2nc3ccccc3c(=O)[nH]2)c2ccccc12 [Example 35, 2-(4-(dimethylamino)naphthalen-1-yl)quinazolin-4(3H)-one]",Inactive,224 to 226
"COc1cc(O)c2c(=O)[nH]c(-c3cc(C)c(O)c(C)c3)nc2c1 [Example 98, 5-hydroxy-2-(4-hydroxy-3,5-dimethylphenyl)-7-methoxyquinazolin-4(3H)-one]",Inactive,291.3 to 293
"COc1cc(OC)c2c(=O)[nH]c(-c3ccc(O)c(CCO)c3)nc2c1 [Example 70, 2-(4-hydroxy-3-(2-hydroxyethyl)phenyl)-5,7-dimethoxyquinazolin-4(3H)-one]",Active,249 to 250.3
"O=c1[nH]c(-c2ccc(O)cc2)cc2ccccc12 [Example 1, 3-(4-Hydroxyphenyl)-2H-isoquinolin-1-one]",Active,239 to 241
"COc1cc2c(c(OC)c1)S(=O)(=O)NC(c1cc(C)c(O)c(C)c1)=C2 [Example 12, 6,8-dimethoxy-3-(4-hydroxy-3,5-dimethylphenyl)-2H-1,2-benzothiazine-1,1-dioxide]",Active,246.6 to 247.4
